Assay [1] concerns S. aureus. Description: Primary stage MIC measurement of antibiotic alone (OD 600 nm growth curves, 18 h). Format: cell-based, Staphylococcus aureus. The source says:
The following day, the turbidity of the actively-growing broth culture was adjusted with Calcium-adjusted Mueller Hinton broth II (MHBII) to be equivalent to that of a 0.5 McFarland standard (1×10^8 CFU/ml). The broth culture was maintained under ambient conditions prior to use.
The method used in this stage was based on the classic Minimum Inhibitory Concentration (MIC) measurements, as described by the Clinical and Laboratory Standards Institute (CLSI) document M07-A9: “Method for Dilution Antimicrobial Susceptibility Test for Bacteria that Grow Aerobically”. While classic MIC measurements require visual inspection of plates for bacterial growth after 18 hours, growth was monitored in the present study according to optical density (OD) at 600 nm, using an ELISA reader (MultiSkan™ FC ELISA reader, Thermo Fisher Scientific, Massachusetts, USA), thereby obtaining bacterial growth curves for tested antibiotic solutions.
Columns 1 and 3-12: 100 μl of MHBII alone was added to each well.
[…]: 200 μl of a solution of antibiotic in MHBII at the highest concentration to be tested was added to each well.
A series of 2-fold dilutions was performed, wherein 100 μl of solution of antibiotic was withdrawn from each well of column 2, transferred to the corresponding well of column 3, and mixed.
The dilution was then repeated by transfer from column 3 to column 4, and so on, until column 11, when the 100 μl of solution of antibiotic withdrawn from each well of column 11 was discarded.
(§1) The 5×10^6 CFU/ml stock suspension which had been prepared in advance was transferred into a reservoir and 10 μl of the stock suspension were added into each well of columns 2-11 using a multichannel pipette to obtain a final 5×10^5 CFU/ml suspension.
The plate was then incubated at 37° C. with shaking in the ELISA reader and the optical density at 600 nm was read every 20 minutes for a total of 18 hours.
The average OD reading obtained for each antibiotic concentration was calculated and plotted against time to obtain a growth curve.
The MIC was determined as the first antibiotic concentration at which […] by the end of the 18-hour period.

The subject of assay [2] is S. aureus. The assay is described as follows: Secondary stage: bacterial growth (ET50/MIC) of antibiotics with or without extract of degradation products of ORC. Format: cell-based, Staphylococcus aureus.
Source text: ORC pads which had not been impregnated with antibiotic (referred to herein as “blank ORC pads”), were subjected to extraction and degradation in PBS for three hours at ambient temperature. Extract obtained from these blank ORC pads is referred to herein as “blank extract of degradation products of ORC”.
Blank ORC pads were subjected to extraction and degradation in a solution of antibiotic in PBS. Extracts of degradation products obtained from blank ORC pads in a solution of antibiotic in PBS is referred to herein as “extracts of degradation products of blank ORC in antibiotic”.
Due to the acidity of ORC, which provides some antibiotic effect, the size of the pad used was small i.e. approximately 1×1.5 inch, weighing between 65-75 mg (70 mg on average) in order to prevent the ORC from affecting the final pH of the assay and therefore the growth of the bacteria.
15 ml tubes, each containing 3 ml of an antibiotic solution at a known concentration in sterile PBS, were prepared in duplicate.
Blank ORC pads were subjected to extraction and degradation in the antibiotic solution by immersing the ORC pads in the antibiotic solution for 3-5 hours at ambient temperature on a roller mixer (Stuart, Cat#SRT9D).
Blank extract of degradation products of ORC and extract in antibiotic of degradation products of ORC, prepared as described above, were diluted 10 folds in MHBII in sterile 15 ml capped tubes.
as §1
Columns 3 to 6, rows B to F, were filled with the Blank ORC extracted in antibiotic at decreasing concentrations 1 to 5, diluted 10 folds in MHBII. Each sample tested was placed in 4 well repeats for statistical results.
Columns 7 to 10, rows B to F, were filled with the antibiotic solution (AB) at decreasing concentrations 1 to 5, diluted 10 folds in MHBII. Each sample tested was placed in 4 well repeats for statistical results.
Columns 3 to 6, row G, were filled with the blank extract of degradation products of ORC (PBS-ORC) diluted 10 folds in MHBII.
The plate was incubated at 37° C. with shaking in the ELISA reader and the optical density at 600 nm was read every 20 minutes for a total of 18 hours.
The average and standard deviation for OD readings was calculated for each time point of the wells using Excel. The average values were plotted against time to obtain a graph of the bacterial growth curves in the presence of each of the antibiotics tested.
In some cases, the average OD was plotted for a single endpoint of 800 minutes for the various antibiotic treatments and controls.
The average values were also entered into the GraphPad Prism program (GraphPad Software Inc., CA, USA) in order to calculate the Effective Time 50 (ET50) i.e. the time, in minutes, required for the antibiotic to induce a response halfway between the baseline and maximum, where the maximum is the bacterial growth in MHBII with PBS. This provides a quantifiable measure of the efficacy of the antibiotics tested and enables comparison of the various samples tested.

Entries after “also recorded” stand apart in the source; their conditions may differ. Bounds are passed on as bounds.

In the case of `CO[C@H]1/C=C/O[C@@]2(C)Oc3c(C)c(O)c4c(O)c(c(/C=N/N5CCN(C)CC5)c(O)c4c3C2=O)NC(=O)/C(C)=C\C=C\[C@H](C)[C@H](O)[C@@H](C)[C@@H](O)[C@@H](C)[C@H](OC(C)=O)[C@@H]1C` [Rifampin, rifampin], in the assay on S. aureus [1], the “MIC as single antibiotics in the absence of ORC (first stage MIC results)” value is 0.015 µg/mL. For the same molecule, the “Effect of addition of degradation products of ORC on the antibiotic activity” value in the assay on S. aureus [2] (antibiotic with versus without ORC degradation products) is listed as “reduction in the antibiotic activity; also recorded: interfere with the antibiotic activity; also recorded: lowering of the antibiotic activity; also recorded: impaired”. Moreover, the ET50 with S. aureus [2] (rifampin 0.015 μg/ml, +ORC degradation products) turned out to be 440.5 min; in the assay with S. aureus [2] (rifampin 0.015 μg/ml, −ORC), 470.7 min; in the assay on S. aureus [2] (rifampin 0.031 μg/ml, +ORC degradation products), 436.3 min; with S. aureus [2] (rifampin 0.031 μg/ml, −ORC) it was 448.4 min; in the assay on S. aureus [2] (rifampin 0.062 μg/ml, +ORC degradation products), 432.8 min; with S. aureus [2] (rifampin 0.062 μg/ml, +ORC degradation products, listed as rifampin), 430 min. The ET50 was 669.1 min in the assay on S. aureus [2] (rifampin 0.062 μg/ml, −ORC); 432.3 min in the assay on S. aureus [2] (rifampin 0.125 μg/ml, +ORC degradation products); “around 430 minutes” in the assay with S. aureus [2] (rifampin 0.125 μg/ml, +ORC degradation products, listed as rifampin); “no growth at all” with S. aureus [2] (rifampin 0.125 μg/ml, −ORC); 430.8 min with S. aureus [2] (rifampin 0.25 μg/ml, +ORC degradation products); “around 430 minutes” in the assay with S. aureus [2] (rifampin 0.25 μg/ml, +ORC degradation products, listed as rifampin). In the assay on S. aureus [2] (rifampin 0.25 μg/ml, −ORC), the ET50 result is given as “no growth at all”.
For the molecule `CN(C)c1ccc(O)c2c1C[C@H]1C[C@H]3[C@H](N(C)C)C(O)=C(C(N)=O)C(=O)[C@@]3(O)C(O)=C1C2=O` [Minocycline, minocycline], the “MIC as single antibiotics in the absence of ORC (first stage MIC results)” value against S. aureus [1] was 0.25 µg/mL. Also, the ET50 with S. aureus [2] (minocycline 0.05 μg/ml, +ORC degradation products) was 901.1 min; in the assay with S. aureus [2] (minocycline 0.05 μg/ml, +ORC degradation products, listed as minocycline), 901 min; in the assay with S. aureus [2] (minocycline 0.05 μg/ml, −ORC), 428.1 min; in the assay with S. aureus [2] (minocycline 0.1 μg/ml, +ORC degradation products), above 2000 min; with S. aureus [2] (minocycline 0.1 μg/ml, +ORC degradation products, listed as minocycline) it was “over 2000 minutes”; in the assay on S. aureus [2] (minocycline 0.1 μg/ml, −ORC), 555.1 min. Further, the ET50 in the assay with S. aureus [2] (minocycline 0.1 μg/ml, −ORC, listed as minocycline) was 555 min; in the assay with S. aureus [2] (minocycline 0.2 μg/ml, +ORC degradation products), above 2000 min; in the assay on S. aureus [2] (minocycline 0.2 μg/ml, +ORC degradation products, listed as minocycline), “over 2000 minutes”; with S. aureus [2] (minocycline 0.2 μg/ml, −ORC), 1771 min; with S. aureus [2] (minocycline 0.4 μg/ml, +ORC degradation products), above 2000 min; in the assay with S. aureus [2] (minocycline 0.4 μg/ml, −ORC), above 2000 min. Further, the ET50 entry with S. aureus [2] (minocycline 0.4 μg/ml, −ORC, listed as minocycline) is “above 2000 minutes”; in the assay with S. aureus [2] (minocycline 0.5 μg/ml, +ORC degradation products), above 2000 min; in the assay on S. aureus [2] (minocycline 0.5 μg/ml, −ORC), above 2000 min.

For the origin of these results see patent US20190184069A1, “ANTIMICROBIAL COMPOSITIONS COMPRISING MINOCYCLINE AND DEGRADATION PRODUCTS OF OXIDIZED CELLULOSE” (Omrix Biopharmaceuticals Ltd., priority 2017, published 2019).
